Assay results taken from PubChem BioAssay AID1259407 (Chemical Carcinogenesis Research Information System (CCRIS), 2018).
Activity calls are given as the source filed them. No rule for the calls is given here.

Tested on: CCRIS mutagenicity, Ames/micronucleus/aberration tests
Assay: CCRIS mutagenicity studies

Nc1ccc(Cl)c(N)c1
mutagenic call (End Point: IN VITRO CHROMOSOMAL ABERRATIONS, Test System: CHL CELLS, Metabolic Activation: RAT, LIVER, S-9, SODIUM PHENOBARBITAL AND 5,6-BENZOFLAVONE): active; positive (structural changes) | mutagenic call (End Point: IN VITRO CHROMOSOMAL ABERRATIONS, Test System: CHO-LB CELLS, Metabolic Activation: RAT, LIVER, S-9, AROCLOR 1254): inactive; negative | mutagenic call (Test System: AMES SALMONELLA TYPHIMURIUM, Strain/Indicator: TA98, Metabolic Activation: HAMSTER, LIVER, S-9, AROCLOR 1254, Method: STANDARD PLATE): active; positive | mutagenic call (Test System: AMES SALMONELLA TYPHIMURIUM, Strain/Indicator: TA98, Metabolic Activation: HAMSTER, LIVER, S-9, Method: STANDARD PLATE): active; positive | mutagenic call (Test System: AMES SALMONELLA TYPHIMURIUM, Strain/Indicator: TA98, Metabolic Activation: MOUSE, LIVER, S-9, AROCLOR 1254, Method: STANDARD PLATE): active; positive | mutagenic call (Test System: AMES SALMONELLA TYPHIMURIUM, Strain/Indicator: TA98, Metabolic Activation: MOUSE, LIVER, S-9, Method: STANDARD PLATE): active; positive | mutagenic call (Test System: AMES SALMONELLA TYPHIMURIUM, Strain/Indicator: TA98, Metabolic Activation: RAT, LIVER, S-9, AROCLOR 1254, Method: STANDARD PLATE): active; positive | mutagenic call (Test System: AMES SALMONELLA TYPHIMURIUM, Strain/Indicator: TA98, Metabolic Activation: RAT, LIVER, S-9, Method: STANDARD PLATE): active; positive | mutagenic call (Test System: AMES SALMONELLA TYPHIMURIUM, Strain/Indicator: TA100, Metabolic Activation: HAMSTER, LIVER, S-9, AROCLOR 1254, Method: STANDARD PLATE): active; positive | mutagenic call (Test System: AMES SALMONELLA TYPHIMURIUM, Strain/Indicator: TA100, Metabolic Activation: NONE, Method: STANDARD PLATE): inactive; negative | mutagenic call (Test System: AMES SALMONELLA TYPHIMURIUM, Strain/Indicator: TA100, Metabolic Activation: RAT, LIVER, S-9, AROCLOR 1254, Method: STANDARD PLATE): active; positive | mutagenic call (Test System: AMES SALMONELLA TYPHIMURIUM, Strain/Indicator: TA1535, Metabolic Activation: HAMSTER, LIVER, S-9, AROCLOR 1254, Method: STANDARD PLATE): inactive; negative | mutagenic call (Test System: AMES SALMONELLA TYPHIMURIUM, Strain/Indicator: TA1535, Metabolic Activation: HAMSTER, LIVER, S-9, Method: STANDARD PLATE): inactive; negative | mutagenic call (Test System: AMES SALMONELLA TYPHIMURIUM, Strain/Indicator: TA1535, Metabolic Activation: MOUSE, LIVER, S-9, AROCLOR 1254, Method: STANDARD PLATE): inactive; negative | mutagenic call (Test System: AMES SALMONELLA TYPHIMURIUM, Strain/Indicator: TA1535, Metabolic Activation: MOUSE, LIVER, S-9, Method: STANDARD PLATE): inactive; negative | mutagenic call (Test System: AMES SALMONELLA TYPHIMURIUM, Strain/Indicator: TA1535, Metabolic Activation: NONE, Method: STANDARD PLATE): inactive; negative | mutagenic call (Test System: AMES SALMONELLA TYPHIMURIUM, Strain/Indicator: TA1535, Metabolic Activation: RAT, LIVER, S-9, Method: STANDARD PLATE): inactive; negative | mutagenic call (Test System: AMES SALMONELLA TYPHIMURIUM, Strain/Indicator: TA1537, Metabolic Activation: HAMSTER, LIVER, S-9, AROCLOR 1254, Method: STANDARD PLATE): active; positive | mutagenic call (Test System: AMES SALMONELLA TYPHIMURIUM, Strain/Indicator: TA1537, Metabolic Activation: HAMSTER, LIVER, S-9, Method: STANDARD PLATE): active; positive | mutagenic call (Test System: AMES SALMONELLA TYPHIMURIUM, Strain/Indicator: TA1537, Metabolic Activation: MOUSE, LIVER, S-9, AROCLOR 1254, Method: STANDARD PLATE): active; positive | mutagenic call (Test System: AMES SALMONELLA TYPHIMURIUM, Strain/Indicator: TA1537, Metabolic Activation: NONE, Method: STANDARD PLATE): inactive; negative | mutagenic call (Test System: AMES SALMONELLA TYPHIMURIUM, Strain/Indicator: TA1537, Metabolic Activation: RAT, LIVER, S-9, AROCLOR 1254, Method: STANDARD PLATE): active; positive | mutagenic call (Test System: AMES SALMONELLA TYPHIMURIUM, Strain/Indicator: TA1537, Metabolic Activation: RAT, LIVER, S-9, Method: STANDARD PLATE): inactive; negative | mutagenic call (Test System: AMES SALMONELLA TYPHIMURIUM, Strain/Indicator: TA1538, Metabolic Activation: HAMSTER, LIVER, S-9, AROCLOR 1254, Method: STANDARD PLATE): active; positive | mutagenic call (Test System: AMES SALMONELLA TYPHIMURIUM, Strain/Indicator: TA1538, Metabolic Activation: HAMSTER, LIVER, S-9, Method: STANDARD PLATE): active; positive | mutagenic call (Test System: AMES SALMONELLA TYPHIMURIUM, Strain/Indicator: TA1538, Metabolic Activation: MOUSE, LIVER, S-9, AROCLOR 1254, Method: STANDARD PLATE): active; positive | mutagenic call (Test System: AMES SALMONELLA TYPHIMURIUM, Strain/Indicator: TA1538, Metabolic Activation: MOUSE, LIVER, S-9, Method: STANDARD PLATE): active; positive | mutagenic call (Test System: AMES SALMONELLA TYPHIMURIUM, Strain/Indicator: TA1538, Metabolic Activation: RAT, LIVER, S-9, AROCLOR 1254, Method: STANDARD PLATE): active; positive | mutagenic call (Test System: AMES SALMONELLA TYPHIMURIUM, Strain/Indicator: TA1538, Metabolic Activation: RAT, LIVER, S-9, Method: STANDARD PLATE): active; positive | mutagenic call (Test System: E. COLI, Strain/Indicator: WP2 UVRA, Metabolic Activation: HAMSTER, LIVER, S-9, AROCLOR 1254, Method: STANDARD PLATE): inactive; negative | mutagenic call (Test System: E. COLI, Strain/Indicator: WP2 UVRA, Metabolic Activation: HAMSTER, LIVER, S-9, Method: STANDARD PLATE): inactive; negative | mutagenic call (Test System: E. COLI, Strain/Indicator: WP2 UVRA, Metabolic Activation: MOUSE, LIVER, S-9, AROCLOR 1254, Method: STANDARD PLATE): inactive; negative | mutagenic call (Test System: E. COLI, Strain/Indicator: WP2 UVRA, Metabolic Activation: MOUSE, LIVER, S-9, Method: STANDARD PLATE): inactive; negative | mutagenic call (Test System: E. COLI, Strain/Indicator: WP2 UVRA, Metabolic Activation: NONE, Method: STANDARD PLATE): inactive; negative | mutagenic call (Test System: E. COLI, Strain/Indicator: WP2 UVRA, Metabolic Activation: RAT, LIVER, S-9, AROCLOR 1254, Method: STANDARD PLATE): inactive; negative | mutagenic call (Test System: E. COLI, Strain/Indicator: WP2 UVRA, Metabolic Activation: RAT, LIVER, S-9, Method: STANDARD PLATE): inactive; negative
